Common to all, as to type: cell-based, human
For data set [1], the system named is bioprinted full thickness skin tissue. The data set is described as follows: Lactate dehydrogenase (LDH) activity in media of bioprinted skin tissue, skin irritation test. An excerpt:
Bio-ink was generated by a cellular mixture of 100% primary adult human dermal fibroblasts (HDFa) in 8% gelatin (NOVOGEL 2.0) at a concentration of 100 million cells per milliliter. The cell: gelatin ratio was altered to reduce the cellular density of the dermal sheet to better mimic dermal tissue in native skin. Three-dimensional bio-ink constructs were printed by continuous deposition using the NOVOGEN BIOPRINTER platform in a 4 mm×4 mm×0.5 mm base to create a dermal structure resembling a sheet. […] The transwell printing surface contained a polytetrafluoroethylene (PTFE) membrane coated with equimolar mixture of types I and III collagen (bovine) with pores 3 μm in size. Epidermal cell paste containing a mixture of 100% primary neonatal human epidermal keratinocytes (HEKn) was then printed on top of the dermal bio-ink. Cell paste was measured post print at 87.1% viable by trypan exclusion assay. Cell numbers in the deposited epidermal layer was estimated at 60,000 cells by cell counting on a Cell-O-Meter. Immediately following the print, constructs were placed at 4° C. for 10 minutes. Cold media was then added to the outer well of the transwell in a volume of 3 ml. The media used for subsequent growth and maintenance of the skin tissue was a 50:50 ratio of HDFa: HEKn media. The initial volume added was sufficient to submerge the structure. All subsequent media changes used warmed media (37° C.) added to the outer well of the transwell and not to the inner basket. Media was changed 48 hours later and reduced to a volume of 1.5 ml per well to bring the structure to an air-liquid interface (ALI). Media and subsequently changed 48 hours after that (day 4) at a volume of 1.5 ml. […] IL-1α production (R&D Systems) was analyzed in a colorimetric assays per manufacturer's protocol. Media was analyzed for lactate dehydrogenase as a marker for cytotoxicity. IL-1α production was assessed as a complementary endpoint to classic cytotoxicity testing to improve predictability of irritants. […] Viability was measured as fluorescence in the media by conversion of resazurin to resorufin. […]

For data set [2] the test system is unchanged. The data set is described as follows: Viability of bioprinted skin tissue by alamar blue assay, skin irritation test. An excerpt: Bio-ink was generated by a cellular mixture of 100% primary adult human dermal fibroblasts (HDFa) in 8% gelatin (NOVOGEL 2.0) at a concentration of 100 million cells per milliliter. The cell: gelatin ratio was altered to reduce the cellular density of the dermal sheet to better mimic dermal tissue in native skin. Three-dimensional bio-ink constructs were printed by continuous deposition using the NOVOGEN BIOPRINTER platform in a 4 mm×4 mm×0.5 mm base to create a dermal structure resembling a sheet. […] The transwell printing surface contained a polytetrafluoroethylene (PTFE) membrane coated with equimolar mixture of types I and III collagen (bovine) with pores 3 μm in size. Epidermal cell paste containing a mixture of 100% primary neonatal human epidermal keratinocytes (HEKn) was then printed on top of the dermal bio-ink. Cell paste was measured post print at 87.1% viable by trypan exclusion assay. Cell numbers in the deposited epidermal layer was estimated at 60,000 cells by cell counting on a Cell-O-Meter. Immediately following the print, constructs were placed at 4° C. for 10 minutes. Cold media was then added to the outer well of the transwell in a volume of 3 ml. The media used for subsequent growth and maintenance of the skin tissue was a 50:50 ratio of HDFa: HEKn media. The initial volume added was sufficient to submerge the structure. All subsequent media changes used warmed media (37° C.) added to the outer well of the transwell and not to the inner basket. Media was changed 48 hours later and reduced to a volume of 1.5 ml per well to bring the structure to an air-liquid interface (ALI). Media and subsequently changed 48 hours after that (day 4) at a volume of 1.5 ml. On day 5, media was changed and further reduced to 1 ml per well and subsequently changed daily. On day 10, skin tissues were subject to a skin irritation test method using 1% TRITON X-100. 1% TRITON X-100 is a known irritant and reference chemical currently used in other 3D skin models. Methods were based on OECD guidelines 439 and 431 for applying human skin models to in vitro skin irritation or corrosion, respectively. On day 10, conditioned media was saved (designated time=0) and 1 ml of fresh media was added to the outer well of the transwell. The printed skin tissue was then treated with 20 μl of PBS as a negative control or with 20 μl of 1% TRITON X-100 as a positive control and known irritant. […] IL-1α production (R&D Systems) was analyzed in a colorimetric assays per manufacturer's protocol. Media was analyzed for lactate dehydrogenase as a marker for cytotoxicity. IL-1α production was assessed as a complementary endpoint to classic cytotoxicity testing to improve predictability of irritants. […] Viability was measured as fluorescence in the media by conversion of resazurin to resorufin. […]
A general note: Alamar Blue is a resazurin reagent that responds to reducing activity.

For data set [3] the test system is unchanged. The data set is described as follows: IL-1α production in media of bioprinted skin tissue (colorimetric assay), skin irritation test. From the text:
Bio-ink was generated by a cellular mixture of 100% primary adult human dermal fibroblasts (HDFa) in 8% gelatin (NOVOGEL 2.0) at a concentration of 100 million cells per milliliter. The cell: gelatin ratio was altered to reduce the cellular density of the dermal sheet to better mimic dermal tissue in native skin. Three-dimensional bio-ink constructs were printed by continuous deposition using the NOVOGEN BIOPRINTER platform in a 4 mm×4 mm×0.5 mm base to create a dermal structure resembling a sheet. […] The transwell printing surface contained a polytetrafluoroethylene (PTFE) membrane coated with equimolar mixture of types I and III collagen (bovine) with pores 3 μm in size. Epidermal cell paste containing a mixture of 100% primary neonatal human epidermal keratinocytes (HEKn) was then printed on top of the dermal bio-ink. Cell paste was measured post print at 87.1% viable by trypan exclusion assay. Cell numbers in the deposited epidermal layer was estimated at 60,000 cells by cell counting on a Cell-O-Meter. Immediately following the print, constructs were placed at 4° C. for 10 minutes. Cold media was then added to the outer well of the transwell in a volume of 3 ml. The media used for subsequent growth and maintenance of the skin tissue was a 50:50 ratio of HDFa: HEKn media. The initial volume added was sufficient to submerge the structure. All subsequent media changes used warmed media (37° C.) added to the outer well of the transwell and not to the inner basket. Media was changed 48 hours later and reduced to a volume of 1.5 ml per well to bring the structure to an air-liquid interface (ALI). Media and subsequently changed 48 hours after that (day 4) at a volume of 1.5 ml. On day 5, media was changed and further reduced to 1 ml per well and subsequently changed daily. On day 10, skin tissues were subject to a skin irritation test method using 1% TRITON X-100. 1% TRITON X-100 is a known irritant and reference chemical currently used in other 3D skin models. Methods were based on OECD guidelines 439 and 431 for applying human skin models to in vitro skin irritation or corrosion, respectively. On day 10, conditioned media was saved (designated time=0) and 1 ml of fresh media was added to the outer well of the transwell. The printed skin tissue was then treated with 20 μl of PBS as a negative control or with 20 μl of 1% TRITON X-100 as a positive control and known irritant. Test substances were pipetted manually to the apical surface of the tissue. TRITON X-100 was diluted to a 1% aqueous solution in deionized water and sterile filtered through a 20 micron filter before use. […] Media was saved (designated time=1 hour). Samples were then washed extensively by PBS rinsing. […] The media was then changed at 24 hours and at 48 hours post treatment. Total media collected included time points=−48, 0, 1, 24, and 48 hours. IL-1α production (R&D Systems) was analyzed in a colorimetric assays per manufacturer's protocol. Media was analyzed for lactate dehydrogenase as a marker for cytotoxicity. IL-1α production was assessed as a complementary endpoint to classic cytotoxicity testing to improve predictability of irritants. Keratinocytes normally produce and release inflammatory cytokine IL-1α in response to chemical or physical stress. […] Viability was measured as fluorescence in the media by conversion of resazurin to resorufin. […]

The text below walks through data of patent publication US11529436B2, “Engineered three-dimensional skin tissues, arrays thereof, and methods of making the same” (Organovo, Inc., priority 2014, dated 2022).

Turning to `CCCCCCCCCCCCOS(=O)(=O)[O-].[Na+]` [SDS], the “LDH activity higher than PBS” value in data set [1] is “about 1.7 fold”. In addition, in data set [2], the “irritancy under these testing conditions, 5% SDS versus 1% TRITON X-100” value is on record as “much stronger irritant” and the “viability compared to the PBS control (alamar blue assay)” value came out at 2.45%. Further, in data set [3], the IL-1α production result is “much stronger response”.
